Reference: US20180312493A1, “Antibiotic Compounds, Pharmaceutical Formulations Thereof And Methods And Uses Therefor” (Simon Fraser University, priority 2015, published 2018)
Converted amounts (≈) assume the structure as drawn.

Legend:
MRSA Pyk = molecular target: T1, MRSA Pyk (Staphylococcus aureus, UniProt Q6GG09); experiment: MRSA pyruvate kinase (PK) activity, continuous LDH-coupled assay; format: biochemical, methicillin resistant S. aureus (MRSA252)
T1 construct: made in house; host or cells: E. coli BL-21 (DE3)
Procedure, shortened: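 His-tagged MRSA PK (strain Sanger 252) and human PK isoforms expressed in E. coli BL-21 (DE3) and Ni-NTA purified, used at 15 nM in an LDH-coupled assay following NADH oxidation at 340 nm, 30° C, up to 5 min, ≤1% DMSO. IC50 from four-parameter variable-slope fit; Ki with PEP 2-20 mM, ADP fixed 2 mM, inhibitor 0-400 nM.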

[1] = test system: A. baumannii (ATCC 19606); experiment: In vitro susceptibility, broth microdilution (MIC); format: cell-based; conditions: Acinetobacter baumannii, ATCC19606; A. baumannii ATCC 19606 (values without asterisk); read-out: Antimicrobial activity (MIC) A. baumannii
Source text: (§1) Epidemic methicillin resistant S. aureus (MRSA) strain sequenced at the Sanger Centre (MRSA252, NRS71) was obtained from NARSA (Network on Antimicrobial Resistance in S. aureus). Methicillin sensitive S. aureus (ATCC 29213 and 25923), methicillin resistant S. aureus (ATCC BAA-1762), and Salmonella typhimurium (ATCC BAA-185) were obtained from ATCC, The Global Bioresource Center. Acinetobacter baumannii (ATCC 19606 and ATCC 17978), Klebsiella pneumonia (C238), vancomycin resistant Enterococci #2 (2010A) (VRE#2), MRSA (USA400, MW2) and Pseudomonas aeruginosa (PA0-1) were obtained from the laboratory of Dr B. B. Finlay at the University of British Columbia (Vancouver, Canada).
(§2) The antimicrobial activities of PK inhibitor candidates were determined using the 96-well microtiter standard 2-fold serial broth microdilution method as described by CLSI (formerly NCCLS) with the various gram-positive and gram-negative bacteria species mentioned above. Bacteria from a single colony were grown, overnight in either BHI Broth (VRE), mueller hinton broth (S. aureus 29213; MRSA USA400, A. baumannii 19606, MRSA BAA-1762) or L-broth (P. aeruginosa, S. typhimurium, K. pneumonia and A. baumannii 17978). Each compound was prepared in DMSO with 2-fold serial dilutions to give a final concentration of, 0.031 to 64 μg/ml. 10 μl of the compound solution was then added, in duplicate, to either, 190 μl of cation adjusted mueller hinton broth (CAMHB) or 190 μl CAMHB containing ˜2.5×10^5 CFU/ml of bacteria (final compound concentration 0.031 to 64 μg/ml). Culture plates were incubated for 18-24 h at 37° C., and optical density at 600 nm (OD600) was measured using a Benchmark Plus™ microplate spectrophotometer (Bio-Rad™). The absorbance control values for the series containing CAMHB and inhibitor were subtracted as background from the corresponding infected wells. Minimal inhibitory concentration (MIC) was defined as the lowest concentration of test compound leading to complete inhibition of cell growth in relation to compound-free control wells as determined by optical density. Vancomycin, methicillin and ciprofloxicin were used as reference compounds. All assays were run in triplicate or duplicate. Experiments were replicated at least twice to verify reproducibility using the above conditions.

MRSA (ATCC BAA-1762) = experiment: In vitro susceptibility, broth microdilution (MIC); format: cell-based, methicillin resistant S. aureus; conditions: Staphylococcus aureus; MRSA ATCC BAA-1762; read-out: Antimicrobial activity (MIC) MRSA ATCC BAA1762
Source text: as §1, §2

VRE#2 (2010A) = experiment: In vitro susceptibility, broth microdilution (MIC); format: cell-based, vancomycin resistant Enterococci; conditions: VRE#2 (2010A); read-out: Antimicrobial activity (MIC) VRE#2
Source text: as §1, §2

S. aureus (ATCC29213) = experiment: In vitro susceptibility, broth microdilution (MIC); format: cell-based; conditions: Staphylococcus aureus; S. aureus ATCC29213; 18-24 h, 37 C; read-out: Antimicrobial activity (MIC) S. aureus ATCC29213
Procedure, shortened: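 CLSI 2-fold serial broth microdilution; K. pneumoniae C238 grown in L-broth, S. aureus ATCC 29213 in Mueller Hinton broth, plates incubated 18–24 h at 37 °C. MIC taken as lowest concentration giving complete growth inhibition by OD600 versus compound-free wells, background-subtracted.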

T1 sequence (Q6GG09 whole entry): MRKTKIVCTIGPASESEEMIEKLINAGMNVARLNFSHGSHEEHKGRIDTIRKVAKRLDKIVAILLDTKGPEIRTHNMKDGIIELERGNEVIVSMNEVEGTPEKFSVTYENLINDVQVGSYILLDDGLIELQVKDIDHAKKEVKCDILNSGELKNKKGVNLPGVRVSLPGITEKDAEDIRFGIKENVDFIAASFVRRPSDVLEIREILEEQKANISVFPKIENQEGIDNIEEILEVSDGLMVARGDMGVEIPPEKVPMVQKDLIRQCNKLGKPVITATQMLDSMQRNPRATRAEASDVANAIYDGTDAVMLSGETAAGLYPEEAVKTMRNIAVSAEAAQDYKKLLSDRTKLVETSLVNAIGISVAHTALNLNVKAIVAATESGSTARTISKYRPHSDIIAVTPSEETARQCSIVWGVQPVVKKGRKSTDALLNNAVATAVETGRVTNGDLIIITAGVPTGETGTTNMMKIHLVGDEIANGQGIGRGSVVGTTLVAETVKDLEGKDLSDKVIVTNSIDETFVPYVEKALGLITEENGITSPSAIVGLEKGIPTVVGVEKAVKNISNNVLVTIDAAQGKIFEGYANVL

Compound | IC50 (MRSA Pyk) | MIC [1] | MIC (MRSA (ATCC BAA-1762)) | MIC (VRE#2 (2010A)) | MIC (S. aureus (ATCC29213))
N.O=C(O)CON=C(c1c(-c2cc3cc(Cl)ccc3[nH]2)[nH]c2cc(Br)ccc12)C(F)(F)F (racemic) [Compound 219, Ammonium 2-(((1-(6-bromo-5′-chloro-1H,1′H-[2,2′-biindol]-3-yl)-2,2,2-trifluoroethylidene)amino)oxy)acetate] | < 100 nM | > 64 µg/mL | 8 µg/mL | 4 µg/mL | 8 µg/mL
CN(C)CCON=C(c1c(-c2cc3cc(Cl)ccc3[nH]2)[nH]c2cc(Br)ccc12)C(F)(F)F (racemic) [Compound 220, 1-(6-Bromo-5′-chloro-1H,1′H-[2,2′-biindol]-3-yl)-2,2,2-trifluoroethan-1-one O-(2-(dimethylamino)ethyl)oxime] | < 100 nM | > 64 µg/mL | 2 µg/mL (≈ 3.79 µM) | 2 µg/mL (≈ 3.79 µM) | 2 µg/mL (≈ 3.79 µM)
COC(=O)C[N+](C)(C)CCON=C(c1c(-c2cc3cc(Cl)ccc3[nH]2)[nH]c2cc(Br)ccc12)C(F)(F)F (racemic) [Compound 222, N-(2-(((1-(6-Bromo-5′-chloro-1H,1′H-[2,2′-biindol]-3-yl)-2,2,2-trifluoroethylidene)amino)oxy)ethyl)-2-methoxy-N,N-dimethyl-2-oxoethan-1-aminium Bromide] | < 100 nM | 32 µg/mL | 2 µg/mL | 4 µg/mL | 2 µg/mL
CN1CCCN(CCCCNC(=O)c2c(-c3cc4cc(Cl)ccc4[nH]3)[nH]c3cc(Br)ccc23)CC1 [Compound 117, 6-Bromo-5′-chloro-N-(4-(4-methyl-1,4-diazepan-1-yl)butyl)-1H,1′H-[2,2′-biindole]-3-carboxamide] | < 100 nM | 32 µg/mL (≈ 57.5 µM) | 8 µg/mL (≈ 14.4 µM) | 8 µg/mL (≈ 14.4 µM) | 8 µg/mL (≈ 14.4 µM)
CN1CCCN(CCCNC(=O)c2c(-c3cc4cc(Cl)ccc4[nH]3)[nH]c3cc(Br)ccc23)CC1 [Compound 118, 6-Bromo-5′-chloro-N-(3-(4-methyl-1,4-diazepan-1-yl)propyl)-1H,1′H-[2,2′-biindole]-3-carboxamide] | < 100 nM | 32 µg/mL (≈ 58.9 µM) | 16 µg/mL (≈ 29.5 µM) | 8 µg/mL (≈ 14.7 µM) | 16 µg/mL (≈ 29.5 µM)
CN1CCCN(CCNC(=O)c2c(-c3cc4cc(Cl)ccc4[nH]3)[nH]c3cc(Br)ccc23)CC1 [Compound 119, 6-Bromo-5′-chloro-N-(2-(4-methyl-1,4-diazepan-1-yl)ethyl)-1H,1′H-[2,2′-biindole]-3-carboxamide] | < 100 nM | 64 µg/mL (≈ 121 µM) | 16 µg/mL (≈ 30.3 µM) | 8 µg/mL (≈ 15.1 µM) | 16 µg/mL (≈ 30.3 µM)
COCCN1CCC(NCCNC(=O)c2c(-c3cc4cc(Cl)ccc4[nH]3)[nH]c3cc(Br)ccc23)CC1 [Compound 124, 6-Bromo-5′-chloro-N-(2-((1-(2-methoxyethyl)piperidin-4-yl)amino)ethyl)-1H,1′H-[2,2′-biindole]-3-carboxamide] | < 100 nM | 16 µg/mL (≈ 27.9 µM) | 8 µg/mL (≈ 14 µM) | 8 µg/mL (≈ 14 µM) | 8 µg/mL (≈ 14 µM)
CN(C)CCNCCNC(=O)c1c(-c2cc3cc(Cl)ccc3[nH]2)[nH]c2cc(Br)ccc12 [Compound 126, 6-Bromo-5′-chloro-N-(2-((2-(dimethylamino)ethyl)amino)ethyl)-1H,1′H-[2,2′-biindole]-3-carboxamide] | < 100 nM | 32 µg/mL (≈ 63.6 µM) | 16 µg/mL (≈ 31.8 µM) | 8 µg/mL (≈ 15.9 µM) | 16 µg/mL (≈ 31.8 µM)
COCCN1CCCN(CCNC(=O)c2c(-c3cc4cc(Cl)ccc4[nH]3)[nH]c3cc(Br)ccc23)CC1 [Compound 130, 6-bromo-5′-chloro-N-(2-(4-(2-methoxyethyl)-1,4-diazepan-1-yl)ethyl)-1H,1′H-2,2′-biindole-3-carboxamide] | < 100 nM | > 64 µg/mL | 16 µg/mL (≈ 27.9 µM) | 16 µg/mL (≈ 27.9 µM) | 16 µg/mL (≈ 27.9 µM)
CNCCNC(=O)c1c(-c2cc3cc(Cl)ccc3[nH]2)[nH]c2cc(Br)ccc12 [Compound 136, 6-Bromo-5′-chloro-N-(2-(methylamino)ethyl)-1H,1′H-[2,2′-biindole]-3-carboxamide] | < 100 nM | 16 µg/mL (≈ 35.9 µM) | 8 µg/mL (≈ 17.9 µM) | 8 µg/mL (≈ 17.9 µM) | 8 µg/mL (≈ 17.9 µM)
